Test results from publication PMC6044503 (ACS Omega, 2017).
Where a SMILES comes first, the peptide text is derived from it. [ ]: non-standard residue; d: D form. The star is where a group is joined. 1Nal = N[C@@H](Cc1cccc2ccccc12)C(=O)O; 2Nal = N[C@@H](Cc1ccc2ccccc2c1)C(=O)O; Cyclohexanecarbonyl = O=C(C1CCCCC1)*; 1Naphthoyl = O=C(c1cccc2ccccc12)*; 2Naphthoyl = O=C(c1ccc2ccccc2c1)*; Cha = N[C@@H](CC1CCCCC1)C(=O)O; Nle = CCCC[C@H](N)C(=O)O; Aib = CC(C)(N)C(=O)O; Bz = O=C(c1ccccc1)*

Key:
[1] = target: T1, human Y2R (Homo sapiens, UniProt P49146); experiment: biochemical; format: binding
T1 sequence (P49146 1-381): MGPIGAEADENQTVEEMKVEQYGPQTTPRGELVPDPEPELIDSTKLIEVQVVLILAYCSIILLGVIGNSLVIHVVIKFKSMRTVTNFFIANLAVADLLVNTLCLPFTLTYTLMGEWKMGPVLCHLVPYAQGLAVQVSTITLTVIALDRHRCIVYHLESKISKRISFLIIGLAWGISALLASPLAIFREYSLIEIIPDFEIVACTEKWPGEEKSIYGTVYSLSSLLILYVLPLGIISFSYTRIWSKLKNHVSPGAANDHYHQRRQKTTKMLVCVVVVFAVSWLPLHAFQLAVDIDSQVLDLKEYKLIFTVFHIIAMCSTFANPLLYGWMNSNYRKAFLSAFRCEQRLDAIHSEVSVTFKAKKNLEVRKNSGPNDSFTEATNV

[2] = target: T1, human Y2R; experiment: biochemical; format: biochemical
[3] = tested on: male C57BL/6J mice; experiment: Food intake assay, bolus ip administration in lean mice; format: in vivo, mouse; details: 3 h after administration, vs saline, mean ± SD

For `CCCC[C@H](NC(=O)[C@H](CC(C)C)NC(=O)[C@H](CC(N)=O)NC(=O)[C@@H](NC(=O)[C@H](CC1CCCCC1)NC(=O)[C@H](Cc1c[nH]cn1)NC(=O)[C@H](CCCNC(=N)N)NC(=O)c1ccccc1)[C@@H](C)CC)C(=O)N[C@H](C(=O)N[C@@H](CCCNC(=N)N)C(=O)N[C@@H](CCC(N)=O)C(=O)N[C@@H](CCCNC(=N)N)C(=O)N[C@@H](CC1CCCCC1)C(N)=O)[C@@H](C)O` [Compound 7] (Bz-RH[Cha]INL[Nle]TRQR[Cha]-NH2), the IC50 [1] was 13 nM, the EC50 [2] was 2.4 nM and the “% food intake inhibition” value ([3]; bolus ip 1000 nmol/kg) was 12 ± 5%.
`CC[C@H](C)[C@H](NC(=O)[C@H](CC1CCCCC1)NC(=O)[C@H](Cc1c[nH]cn1)NC(=O)[C@H](CCCNC(=N)N)NC(=O)c1ccccc1)C(=O)N[C@@H](CC(N)=O)C(=O)N[C@@H](CC(C)C)C(=O)N[C@@H](CCCCN)C(=O)N[C@H](C(=O)N[C@@H](CCCNC(=N)N)C(=O)N[C@@H](CCC(N)=O)C(=O)N[C@@H](CCCNC(=N)N)C(=O)N[C@@H](CC1CCCCC1)C(N)=O)[C@@H](C)O` [Compound 9] (Bz-RH[Cha]INLKTRQR[Cha]-NH2) was tested, and the IC50 [1] was 1.6 nM, the EC50 [2] was 0.62 nM and the “agonist activity, fold increase compared to that of 4” value ([2]; relative to compound 4) was “more than 4 fold”. The “% food intake inhibition” value ([3]; bolus ip 1000 nmol/kg) was “–15 ± 7%”.
With `CC[C@H](C)[C@H](NC(=O)[C@H](CC1CCCCC1)NC(=O)[C@H](Cc1c[nH]cn1)NC(=O)[C@H](CCCNC(=N)N)NC(=O)C1CCCCC1)C(=O)N[C@@H](CC(N)=O)C(=O)N[C@@H](Cc1c[nH]c2ccccc12)C(=O)N[C@H](C(=O)N[C@H](C(=O)N[C@@H](CCCNC(=N)N)C(=O)N[C@@H](CCC(N)=O)C(=O)N[C@@H](CCCNC(=N)N)C(=O)N[C@@H](CC1CCCCC1)C(N)=O)[C@@H](C)O)[C@@H](C)CC` [Compound 13] (Cyclohexanecarbonyl-RH[Cha]INWITRQR[Cha]-NH2) the IC50 [1] was 6.8 nM, the EC50 [2] was 1.7 nM and the “% food intake inhibition” value ([3]; bolus ip 500 nmol/kg) was 8 ± 6%.
`CC[C@H](C)[C@H](NC(=O)[C@H](Cc1c[nH]c2ccccc12)NC(=O)[C@H](CC(N)=O)NC(=O)[C@H](CC1CCCCC1)NC(=O)[C@H](CC1CCCCC1)NC(=O)[C@H](Cc1c[nH]cn1)NC(=O)[C@H](CCCNC(=N)N)NC(=O)C1CCCCC1)C(=O)N[C@H](C(=O)N[C@@H](CCCNC(=N)N)C(=O)N[C@@H](CCC(N)=O)C(=O)N[C@@H](CCCNC(=N)N)C(=O)N[C@@H](CC1CCCCC1)C(N)=O)[C@@H](C)O` [Compound 14] (Cyclohexanecarbonyl-RH[Cha][Cha]NWITRQR[Cha]-NH2) was tested, and the IC50 [1] was 15 nM, the EC50 [2] was 11 nM and the “% food intake inhibition” value ([3]; bolus ip 500 nmol/kg) was 23 ± 7%.
For `CC[C@H](C)[C@H](NC(=O)[C@H](CC1CCCCC1)NC(=O)[C@H](Cc1c[nH]cn1)NC(=O)[C@H](CCCNC(=N)N)NC(=O)C1CCCCC1)C(=O)N[C@@H](CC(N)=O)C(=O)N[C@@H](CC(C)C)C(=O)NC(C)(C)C(=O)N[C@H](C(=O)N[C@@H](CCCNC(=N)N)C(=O)N[C@@H](CCC(N)=O)C(=O)N[C@@H](CCCNC(=N)N)C(=O)N[C@@H](CC1CCCCC1)C(N)=O)[C@@H](C)O` [Compound 16] (Cyclohexanecarbonyl-RH[Cha]INL[Aib]TRQR[Cha]-NH2), the IC50 [1] was 4.9 nM, the EC50 [2] was 1.6 nM and the “% food intake inhibition” value ([3]; bolus ip 500 nmol/kg) was 5 ± 13%.
For `CC[C@H](C)[C@H](NC(=O)[C@H](CC1CCCCC1)NC(=O)[C@H](Cc1c[nH]cn1)NC(=O)[C@H](CCCNC(=N)N)NC(=O)C1CCCCC1)C(=O)N[C@@H](CC(N)=O)C(=O)N[C@@H](Cc1c[nH]c2ccccc12)C(=O)NC(C)(C)C(=O)N[C@H](C(=O)N[C@@H](CCCNC(=N)N)C(=O)N[C@@H](CCC(N)=O)C(=O)N[C@@H](CCCNC(=N)N)C(=O)N[C@@H](CC1CCCCC1)C(N)=O)[C@@H](C)O` [Compound 17] (Cyclohexanecarbonyl-RH[Cha]INW[Aib]TRQR[Cha]-NH2), the IC50 [1] was 5.7 nM, the EC50 [2] was 1.9 nM and the “% food intake inhibition” value ([3]; bolus ip 500 nmol/kg) was 24 ± 5%.
With `CC(C)C[C@H](NC(=O)[C@H](CC(N)=O)NC(=O)[C@H](Cc1c[nH]c2ccccc12)NC(=O)[C@H](CC1CCCCC1)NC(=O)[C@H](Cc1c[nH]cn1)NC(=O)[C@H](CCCNC(=N)N)NC(=O)c1ccccc1)C(=O)NC(C)(C)C(=O)N[C@H](C(=O)N[C@@H](CCCNC(=N)N)C(=O)N[C@@H](CCC(N)=O)C(=O)N[C@@H](CCCNC(=N)N)C(=O)N[C@@H](CC1CCCCC1)C(N)=O)[C@@H](C)O` [Compound 18] (Bz-RH[Cha]WNL[Aib]TRQR[Cha]-NH2) the IC50 [1] was 6.4 nM, the EC50 [2] was 1.6 nM and the “% food intake inhibition” value ([3]; bolus ip 500 nmol/kg) was 2 ± 8%.
With `CC(C)C[C@H](NC(=O)[C@H](CC(N)=O)NC(=O)[C@H](Cc1cccc2ccccc12)NC(=O)[C@H](CC1CCCCC1)NC(=O)[C@H](Cc1c[nH]cn1)NC(=O)[C@H](CCCNC(=N)N)NC(=O)c1ccccc1)C(=O)NC(C)(C)C(=O)N[C@H](C(=O)N[C@@H](CCCNC(=N)N)C(=O)N[C@@H](CCC(N)=O)C(=O)N[C@@H](CCCNC(=N)N)C(=O)N[C@@H](CC1CCCCC1)C(N)=O)[C@@H](C)O` [Compound 19] (Bz-RH[Cha][1Nal]NL[Aib]TRQR[Cha]-NH2) the IC50 [1] was 9.1 nM, the EC50 [2] was 2.7 nM and the “% food intake inhibition” value ([3]; bolus ip 500 nmol/kg) was 41 ± 5%.
For `CC(C)C[C@H](NC(=O)[C@H](CC(N)=O)NC(=O)[C@H](Cc1ccc2ccccc2c1)NC(=O)[C@H](CC1CCCCC1)NC(=O)[C@H](Cc1c[nH]cn1)NC(=O)[C@H](CCCNC(=N)N)NC(=O)c1ccccc1)C(=O)NC(C)(C)C(=O)N[C@H](C(=O)N[C@@H](CCCNC(=N)N)C(=O)N[C@@H](CCC(N)=O)C(=O)N[C@@H](CCCNC(=N)N)C(=O)N[C@@H](CC1CCCCC1)C(N)=O)[C@@H](C)O` [Compound 20] (Bz-RH[Cha][2Nal]NL[Aib]TRQR[Cha]-NH2), the IC50 [1] was 29 nM, the EC50 [2] was 7.5 nM and the “% food intake inhibition” value ([3]; bolus ip 500 nmol/kg) was 18 ± 2%.
Compound `CC(C)C[C@H](NC(=O)[C@H](CC(N)=O)NC(=O)[C@H](CC1CCCCC1)NC(=O)[C@H](CC1CCCCC1)NC(=O)[C@H](Cc1c[nH]cn1)NC(=O)[C@H](CCCNC(=N)N)NC(=O)c1cccc2ccccc12)C(=O)NC(C)(C)C(=O)N[C@H](C(=O)N[C@@H](CCCNC(=N)N)C(=O)N[C@@H](CCC(N)=O)C(=O)N[C@@H](CCCNC(=N)N)C(=O)N[C@@H](CC1CCCCC1)C(N)=O)[C@@H](C)O` [Compound 25] (1Naphthoyl-RH[Cha][Cha]NL[Aib]TRQR[Cha]-NH2) has an IC50 [1] of 18 nM and an EC50 [2] of 5.8 nM.
`CC(C)C[C@H](NC(=O)[C@H](CC(N)=O)NC(=O)[C@H](CC1CCCCC1)NC(=O)[C@H](CC1CCCCC1)NC(=O)[C@H](Cc1c[nH]cn1)NC(=O)[C@H](CCCNC(=N)N)NC(=O)c1ccc2ccccc2c1)C(=O)NC(C)(C)C(=O)N[C@H](C(=O)N[C@@H](CCCNC(=N)N)C(=O)N[C@@H](CCC(N)=O)C(=O)N[C@@H](CCCNC(=N)N)C(=O)N[C@@H](CC1CCCCC1)C(N)=O)[C@@H](C)O` [Compound 26] (2Naphthoyl-RH[Cha][Cha]NL[Aib]TRQR[Cha]-NH2) was tested, and the IC50 [1] was 26 nM and the EC50 [2] was 6 nM.
